One compound from patent US20080051413A1, “Nitrophenylpiperazine derivative of xanthine which relaxes tracheal airway and increases respiratory performance” (KAOHSIUNG MEDICAL UNIVERSITY, priority 2006, published 2008) can be followed below.

Several values for one entry are separate records, joined by “and”; a condition that tells them apart may be missing. Identical values can stand only once.

One experiment concerns respiratory performance. Description: Pulmonary function after i.v. injection (RL, Cdyn, tidal volume). Format: in vivo. The conditions noted are these: 1 mg/kg i.v., guinea pig, n = 3. Here is the method: Animals: Male Dunkin Harley guinea pigs (350-450 g) were provide by the National Laboratory Animal Breeding and Research Center (Taipei, Taiwan) and housed under conditions of constant temperature and controlled illumination. Food and water were available and libitum. The study was approved by the Animal Care and Use Committee of the Kaohsiung Medical University.
Pulmonary Function: Guinea pegs (350-450 g) were anesthetized with pentobarbital (40 mg/kg i.p.) and maintained with further i.v. doses of 2 to 5 mg/kg when required according to methods previously described (Wu B N, Lin R J, Lo Y C, Shen K P, Wang C C, Lin Y T, and Chen I J (2004) KMUP-1, a xanthine derivative, induces relaxation of guinea-pig isolated trachea: the role of the epithelium, cyclic nucleotides and K^+ channels, Br J Pharmacol 142:1105-1114). The animal was tethered in a supine position, and the trachea was cannulated below the larynx with a short tracheal cannula via a tracheotomy. Tracheal pressure was measured by a catheter connected to the side arm of the tracheal cannula. The carotid artery and jugular vein were cannulated to monitor blood pressure and heart rate and for drug administration, respectively. Throughout the experiment, the body temperature of the guinea pig was maintained at 37_. Measurements of pulmonary cardiac function were carried out as previously described (Hsu T H, Lai Y L, and Kou Y R (1998) Acetylcholine and tachykinin receptor antagonists attenuate wood smoke-induced bronchoconstriction in Guinea pigs. Eur J Pharmacol 360:175-183). Total lung resistance (RL) and dynamic lung compliance (Cdyn) were measured on a breath-by-breath basis using a computer equipped with an A/D interface (DAS 1600; Buxco Electronics, Inc., Wilmington, N.C.) and software (version 1.5.7; Buxco Electronics, Inc.). Results obtained from the computer analysis were checked for accuracy by comparison with those calculated manually.
Animals were allowed to stabilize for 10 min following surgical manipulations before the test agent was administered. Intratracheal instillation was performed using a catheter placed through the tracheal tube into the bronchial system. The catheter connected to a 1-ml syringe was inserted into the trachea cannula extending 1 cm beyond the tip of the cannula for instillation of drug or vehicle. The instillation was followed by rapid intratracheal injection of 0.5 ml of air to facilitate deposition of drug or vehicle into the lungs as in the modified methods of Chung et al. (2001)(Chung W H, Bennett B M, Racz W J, Brien J F, and […] Fischer 344 rats during aminodarone-induced pulmonary fibrosis. Am J Physiol 281:L1180-L1188). The animals were pretreated intratracheally with KMUP-3 (0.5, 1.0, and 2.0 mg/kg/150 _l of saline) or an equivalent volume (150 _l) of vehicle 15 min before TNF-_(0.01 mg/kg/300 _l saline) was instilled to induce acute bronchoconstriction. In another experiments, KMUP-3 or KMUP-1 (1.0 mg/kg i.v.) were used to compare the effects on respiratory performance, indicated by changes of tidal volume, total RL, and Cdyn.

For experiment [1], the system named is guinea pig tracheal smooth muscle cells. As to the kind of experiment: Measurement of cAMP in TSMCs. Format: cell-based. Here is the method: (§1) Cell Culture of Tracheal Smooth Muscle: Guinea pigs (350-450 g) were injected i.p. with a lethal dose of pentobarbital. The tracheas were excised and cut longitudinally through the cartilage. Using a dissecting microscope, TSM strips were dissected from the surrounding parentchyma. The epithelium was removed from the luminal surface, and bands of TSM were gently separated from the underlying connective tissue. Then TSM strips were chopped into small sections (1 mm^3) and incubated in Hanks' balanced salt solution (138 mM NaCl, 4 mM NaHCO3, 5 mM KCl, 0.3 mM KH2PO4, 0.3 mM Na2HPO4, and 1.0 mM glucose) with 0.05% elastase type IV and 0.2% collagenase type IV (Invitrogen, Carlsbad, Calif.) for 30 min at 37_ with gentle shaking. The solution of dissociated smooth muscle cells was centrifuged (6 min at 500 g), and the pellet was resuspended in 1:1 Dulbecco's modified Eagle's medium/Ham's F-12 medium supplemented with 10% fetal bovine serum, 0.244% NaHCO3, and 1% penicillin/streptomycin. Cells were cultured in 25-cm^2 flasks at 37_ in humidified air containing 5% CO2. Confluent cells were detached with 0.25% trypsin-0.02% EDTA at 37_and then subcultured to establish secondary cultures. Cultures were maintained for no more than four passages. They were identified as smooth muscle cells by the typical hill-and-valley appearance, and cellular homogeneity was further confirmed by the presence of smooth muscle specific _-myosin and _-actin immunoreactivity. Indirect immunofluorescence staining for a variety of antigens was carried out by first plating the cells on chamber slides, fixing the cells in 3.7% formaldehyde-phosphate-buffered saline for 10 min, and permeabilizing the cells with phosphate-buffered saline and 0.1% Triton X-100. Cells were then stained with either a mouse monoclonal antibody directed against the amino-terminal 10 amino acids of _-smooth muscle actin or _-myosin (Roche Diagnostics, Indianapolis, Ind.). All cells were stained with fluorescein-labeled goat anti-mouse IgG antibody (Roche Diagnostics).
(§2) Measurement of cAMP and cGMP: Intracellular concentrations of cAMP and cGMP in TSMCs were measured as in our previous reports (Wu B N, Lin R J, Lin C Y, Shen K P, Chiang L C, and Chen I J (2001) A xanthine-based KMUP-1 with cyclic GMP enhancing and K^+ channels opening activities in rat aortic smooth muscle. Br J Pharmacol 134:265-274; Lin R J, Wu B N, Lo Y C, Shen K P, Lin Y T, Huang C H, and Chen I J (2002) KMUP-1 relaxes rabbit corpus cavernosum smooth muscle in vitro and in vivo: involvement of cyclic GMP and K(+) channels, Br J Pharmacol 135:1159-1166). In brief, cells were finally grown in 24-well plates (10^5 cells/well). At confluence, monolayer cells were washed with phosphate-buffered saline and then incubated with KMUP-3 (0.01-100 _M) for 20 min at 37_ in medium. […] The reaction was terminated by replacement of medium with 1 ml of ice-cold 1 N hydrochloric acid. Cells suspensions were sonicated and then centrifuged at 2500 g for 15 min at 4_. Then, the supernatants were lyophilized and the cAMP and cGMP of each sample were determined using commercially available radioimmunoassay kits (GE Healthcare, Little Chalfont, Buckinghamshire, UK).

Experiment [2] shares this test system. As to the kind of experiment: Measurement of cGMP in TSMCs. Format: cell-based. As to conditions: for GMP level: basal 1.18±0.06. Here is the method: as §1, §2

Consider `Cn1c(=O)c2c(ncn2CCN2CCN(c3ccc([N+](=O)[O-])cc3)CC2)n(C)c1=O` [KMUP-3], for which the “Cdyn, Maximum change of baseline (%)” value in the experiment on respiratory performance came to 50 ± 5.5 %. For the same compound, in the experiment with respiratory performance, the “RL, Maximum change of baseline (%)” value is −55 ± 4.5 %. Also, the “Tidal Volume, Maximum change of baseline (%)” value with respiratory performance was determined as 21.7 ± 0.5 %. The cAMP level was 80.2±2.5 pmol/mg protein in experiment [1] (0.01 _M, 20 min, basal 62.6±6.4); 91.3±3.4 pmol/mg protein in experiment [1] (0.1 _M, 20 min, basal 62.6±6.4); 97.9±2.5 pmol/mg protein in experiment [1] (1 _M, 20 min, basal 62.6±6.4); 110.7±4.5 pmol/mg protein in experiment [1] (10 _M, 20 min, basal 62.6±6.4); 127.5±4.8 pmol/mg protein and 128.72 ± 4.57 pmol/mg protein in experiment [1] (100 _M, 20 min, basal/vehicle 62.6±6.4). In addition, the “cAMP level in presence of SQ 22536” value in experiment [1] (100 _M compound plus SQ 22536 (100 _M) pretreatment) was 74.51 ± 3.18 pmol/mg protein. The “cAMP accumulation versus vehicle (FIG. 6)” value in experiment [1] (100 _M, 20 min) is “significant elevations”. The GMP level worked out at 1.62±0.05 pmol/mg protein in experiment [2] (0.01 _M, 20 min); 1.73±0.01 pmol/mg protein in experiment [2] (0.1 _M, 20 min); 1.75±0.04 pmol/mg protein in experiment [2] (1 _M, 20 min); 1.86±0.05 pmol/mg protein in experiment [2] (10 _M, 20 min). Further, the “Cyclic GMP level in presence of L-NAME” value in experiment [2] (100 _M compound plus L-NAME (100 _M) pretreatment) is 1.28 ± 0.01 pmol/mg protein. Further, the “Cyclic GMP level in presence of ODQ” value in experiment [2] (100 _M compound plus ODQ (10 _M) pretreatment) is 1.35 ± 0.04 pmol/mg protein. In addition, the “amounts of cGMP versus vehicle (FIG. 6)” value in experiment [2] (100 _M, 20 min) is given as “significantly enhances”. The “Cyclic GMP level” value in experiment [2] (100 _M, 20 min, basal/vehicle 1.18±0.06) is 1.98±0.09 pmol/mg protein and 1.98 ± 0.08 pmol/mg protein.
